Data set [1] can be described thus: AUC (0 to t) in ICR mouse at 10 mg/kg, iv by LC-MS/MS analysis. In kind it is ADME, organism-based. The note with it: in vivo.
The subject of data set [2] is Staphylococcus aureus. Kind of data set: Antibacterial activity against methicillin-resistant Staphylococcus aureus ATCC 43300 assessed as bacterial growth inhibition incubated for 24 hrs by broth dilution method. In kind it is functional. The following applies: ATCC 43300, 24 h. Background: Broth dilution looks for growth in wells or tubes with falling amounts of substance.

A short description of data set [3]: MRT in ICR mouse at 10 mg/kg, iv by LC-MS/MS analysis. The following applies: in vivo. In kind it is ADME, organism-based.
Data set [4] deals with Staphylococcus aureus. Kind of data set: Antibacterial against methicillin-resistant Staphylococcus aureus ATCC 43300 assessed as post antibiotic effect time at 4 times MIC incubated for 2 hrs followed by compound washout and then incubated for 20 hrs onto MH agar plate. In kind it is functional.
For data set [5], the system named is Staphylococcus aureus. Briefly: Bactericidal activity against methicillin-resistant Staphylococcus aureus ATCC 43300 assessed as reduction in colony forming unit at 4 times MIC incubated for 3 hrs followed by compound dilution with saline and then incubated for 20 hrs on MH agar plate by time-kill kinetics assay. In kind it is functional.
For data set [6], the system named is Staphylococcus aureus. Kind of data set: Antibacterial against methicillin-resistant Staphylococcus aureus ATCC 43300 assessed as post antibiotic effect time at 2 times MIC incubated for 2 hrs followed by compound washout and then incubated for 20 hrs onto MH agar plate. In kind it is functional.
The subject of data set [7] is Staphylococcus aureus. Briefly: Antibacterial against methicillin-resistant Staphylococcus aureus ATCC 43300 assessed as post antibiotic effect time at 4 times MIC incubated for 1 hr followed by compound washout and then incubated for 20 hrs onto MH agar plate. In kind it is functional.
Data set [8] can be described thus: Tmax in ICR mouse at 10 mg/kg, iv by LC-MS/MS analysis. The note with it: in vivo. In kind it is ADME, organism-based.
Data set [9] deals with Staphylococcus aureus. Briefly: Antibacterial activity against methicillin-resistant Staphylococcus aureus infected in systemic infection ICR mouse model assessed as animal survival rate at 30 mg/kg, iv relative to control. In kind it is functional.
Data set [10] is described as follows: Half life in ICR mouse at 10 mg/kg, iv by LC-MS/MS analysis. In kind it is ADME, organism-based. The following applies: in vivo.
Data set [11] in a line: AUC (0 to infinity) in ICR mouse at 10 mg/kg, iv by LC-MS/MS analysis. In kind it is ADME, organism-based. On the set-up: dose 10 mg/kg, route intravenous, time infinity. The note with it: in vivo.
Data set [12] deals with Staphylococcus aureus. Briefly: Bactericidal activity against methicillin-resistant Staphylococcus aureus ATCC 43300 assessed as reduction in bacterial growth at 4 times MIC incubated for 24 hrs followed by compound dilution with saline and then incubated for 20 hrs on MH agar plate by time-kill kinetics assay relative to control. The arrangement: scale not given: the % may be the effect or the level left. In kind it is functional.

The subject of data set [13] is Escherichia coli. Kind of data set: Antibacterial activity against Escherichia coli 9-1 assessed as bacterial growth inhibition incubated for 24 hrs by broth dilution method. In kind it is functional. The note with it: 9-1, 24 h.
Data set [14] concerns Staphylococcus aureus. Kind of data set: Antibacterial against methicillin-resistant Staphylococcus aureus ATCC 43300 assessed as post antibiotic effect time at 2 times MIC incubated for 1 hr followed by compound washout and then incubated for 20 hrs onto MH agar plate. In kind it is functional.
Data set [15] concerns Escherichia coli. Briefly: Antibacterial activity against Escherichia coli ATCC 25922 assessed as bacterial growth inhibition incubated for 24 hrs by broth dilution method. The note with it: ATCC 25922, 24 h. In kind it is functional.
Data set [16] relates to Staphylococcus aureus. Briefly: Antibacterial activity against Staphylococcus aureus AD3 assessed as bacterial growth inhibition incubated for 24 hrs by broth dilution method. In kind it is functional. The note with it: AD3, 24 h.
Data set [17] can be described thus: Cmax in ICR mouse at 10 mg/kg, iv by LC-MS/MS analysis. In kind it is ADME, organism-based. The following applies: in vivo. On the set-up: dose 10 mg/kg, route intravenous.
For data set [18], the system named is Staphylococcus aureus. Kind of data set: Antibacterial activity against methicillin-resistant Staphylococcus aureus infected in neutropenic thigh infection ICR/Swiss mouse model assessed reduction in colony forming unit in thigh at 20 mg/kg, iv administered 2 hrs post infection and measured at 24 hrs after drug dosage. In kind it is functional.
A short description of data set [19]: Clearance in ICR mouse at 10 mg/kg, iv by LC-MS/MS analysis. In kind it is ADME, organism-based. The following applies: in vivo.
The subject of data set [20] is Staphylococcus aureus. Kind of data set: Antibacterial activity against Staphylococcus aureus ATCC 29213 assessed as bacterial growth inhibition incubated for 24 hrs by broth dilution method. In kind it is functional. The following applies: ATCC 29213, 24 h.

Converted amounts (≈) assume the structure as drawn.

Broadly, the AUC(0-t) is exposure summed from dosing to a finite time, without extrapolation to infinity. One may read the MIC as the least concentration at which growth counts as inhibited. The term MRT denotes a mean duration of stay, worked out from the concentration-time curve. Broadly, the Tmax is the time from dosing to the highest level. As a reminder, the half-life is how long it takes for the measured level to halve. Broadly, the AUC(0-inf) is the area under the concentration-time curve extrapolated to infinity. As usually defined, the Cmax is the maximum level reached in the sampled fluid or tissue. The clearance is the rate of elimination divided by the concentration.

`C=C[C@]1(C)C[C@@H](OC(=O)CSc2ccccc2NC(=O)CN2CCOCC2)[C@]2(C)[C@H](C)CC[C@]3(CCC(=O)[C@H]32)[C@@H](C)[C@@H]1O` returned an AUC(0-t) in data set [1] of 470 ng·h/mL. For the same compound, the MIC in the data set on Staphylococcus aureus [2] was 0.06 µg/mL (≈ 0.0979 µM); in the data set with Escherichia coli [13], over 32 µg/mL; with Escherichia coli [15], over 32 µg/mL; with Staphylococcus aureus [16] it was 0.125 µg/mL (≈ 0.204 µM); with Staphylococcus aureus [20] it was 0.06 µg/mL (≈ 0.0979 µM). Also, the MRT in [3] is 36.6 min. In addition, the Time is 3.47 h in the data set with Staphylococcus aureus [4], 2.64 h with Staphylococcus aureus [6], 2.05 h in the data set on Staphylococcus aureus [7] and 1.62 h in the data set on Staphylococcus aureus [14]. The Activity was 2.19 log10CFU/ml with Staphylococcus aureus [5], 60% in the data set on Staphylococcus aureus [9], 100% in the data set on Staphylococcus aureus [12] and 1.4 log10CFU/ml with Staphylococcus aureus [18]. The Tmax in [8] turned out to be 4.98 min. The half-life in data set [10] was 413 min. In [11], this compound registered an AUC(0-inf) of 480 ng·h/mL. The same compound displayed a Cmax in [17] of 1760 ng/mL. The compound further had a clearance in [19] of 361 mL/min/kg.
